{
  "source": "patent US9115061B2",
  "about": "“Naphthalene-based inhibitors of anti-apoptotic proteins” (BURNHAM INSTITUTE FOR MEDICAL RESEARCH, priority 2007, dated 2015); as to 1D 1H-NMR Binding Assay (BCL-XL): key: +++: Very Active; ++: Active; +: Mild; −: Weak",
  "key": {"PC3ML cells": {"system": "PC3ML cells", "assay": "Cell viability, ATP-LITE assay", "format": "cell-based, human", "details": "72 hours, ATP-LITE", "description": "(§1) The activity of the compounds against human cancer cell lines (PC3ML, H460, H1299, RS11846) were assessed by using the ATP-LITE assay (PerkinElmer). All cells were seeded in either F12 or RPMI1640 medium with 5 mM L-glutamine supplemented with 5% fetal bovine serum (Mediatech Inc.), penicillin and streptomycin (Omega). For maintenance, cells were cultured in 5% FBS. Cells plated into 96 well plates at varying initial densities depending on doubling time. H460 and H1299 plated at 2000 cells/well, A549 and PC3 at 3000 cells/well, and RS118456S at 10,000 cells/well. Compounds were diluted to final concentrations with 0.1% DMSO. Prior to dispensing compounds onto cells, fresh 5% media was placed into wells. Administration of compounds occurred 24 hours after seeding into the fresh media. Cell viability was evaluated using ATP-LITE reagent (PerkinElmer) after 72 hours of treatment. Data were normalized to the DMSO control-treated cells using Prism version 5.01 (Graphpad Software)."}, "RS11846 cell line [1]": {"system": "RS11846 cell line", "assay": "Cell viability, ATP-LITE assay", "format": "cell-based, human", "details": "72 hours", "description": "as §1"}, "H460 cell line": {"system": "H460 cell line", "assay": "Cell viability, ATP-LITE assay", "format": "cell-based, human", "details": "72 hours, ATP-LITE", "description": "as §1"}, "H1299 cell line": {"system": "H1299 cell line", "assay": "Cell viability, ATP-LITE assay", "format": "cell-based, human", "details": "72 hours", "description": "as §1"}, "[2]": {"system": "murine B-cells from BCL-2 transgenic mice", "assay": "Viability of cultured splenocytes, Annexin V-FITC/PI", "format": "cell-based", "details": "18 hours; read-out: IC50, induction of apoptosis in cultured B-cells of BCL-2 transgenic mouse", "description": "Spleens were excised from sacrificed mice and cell suspensions treated with a mouse erythrocyte lysing kit (R & D Systems). Total splenocyte count was determined by typan blue dye exclusion assays using hemocytometers. The percentage of B-lymphocytes was determined by fluorescence activated cell sorter (FACS) analysis SACS-CANTO, Bectin-Dickinson Inc., Mountain View, Calif.) following staining cells with Phyco-Erytrin (PE)-conjugated anti-CD19 or -B220 antibodies (Becton Dickinson, San Jose, Calif. 95131).\nAfter 18 hours of incubation, % viability of splenocytes was determined by FACSort after staining cells by the use of an Annexin V-FITC/PI Apoptosis Detection kit (BioVision Inc.). Viable cells were defined by Annexin V-negative, PI-negative cells."}, "GST-BCL-XL ΔTM protein": {"target": "GST-BCL-XL ΔTM protein (Homo sapiens (Human), UniProt Q07817)", "sequence (Q07817 1-209)": "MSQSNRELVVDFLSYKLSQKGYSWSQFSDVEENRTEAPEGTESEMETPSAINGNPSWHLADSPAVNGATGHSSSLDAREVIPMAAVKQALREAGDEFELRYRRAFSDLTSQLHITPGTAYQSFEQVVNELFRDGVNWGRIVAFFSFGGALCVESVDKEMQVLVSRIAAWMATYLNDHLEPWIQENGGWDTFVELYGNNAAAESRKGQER", "assay": "Competitive fluorescence polarization assay (FITC-Bak BH3 peptide)", "format": "binding", "details": "read-out: FPA IC50 (BCL-XL)", "description": "For competitive binding assays, 100 nM GST-BCL-XL ΔTM protein was preincubated with the tested compound at varying concentrations in 47.5 μL PBS (pH=7.4) in 96-well black plates at room temperature for 10 min, then 2.5 μL of 100 nM FITC-labeled Bak BH3 peptide was added to produce a final volume of 50 μL. The wild-type and mutant Bak BH3 peptides were included in each assay plate as positive and negative controls, respectively.\nIC50 was determined by fitting the experimental data to a sigmoidal dose-response nonlinear regression model (SigmaPlot 10.0.1, Systat Software, Inc., San Jose, Calif., USA). Data reported are mean of three independent experiments ±standard error (SE). […] Fluorescence polarization was measured after 10 min."}, "[3]": {"details": "orally 0.06 mmol/kg daily for up to 21 days; cited from earlier work"}, "Balb/c mice": {"system": "Balb/c mice", "assay": "Oral toxicity study in normal Balb/c mice", "format": "in vivo, mouse", "details": "[…] oral, three weeks", "description": "Compounds or vehicle control were dosed 15 times over 3 weeks, giving compounds daily for 5 consecutive days (Monday-Friday), resting on weekends.\nBoth compounds were provided by NCI-DTP (RAID-program). Compounds were dissolved in 100% sesame oil just before oral administration. Vehicle-control consisted of corresponding concentration of ascorbic acid suspended in 100% sesame oil.\nSpleens were removed and weighed.\nWhole blood (250 μl) was collected in EDTA-coated glass tubes (purple top; MICROTAINER Brand Tube with EDTA, Catalogue #365973, Becton, Dickinson and Company, New Jersey 07417-1885) via either cardiac puncture or severing the brachial artery of anesthetized mice. After thorough mixing, specimens were analyzed using a VetScan HM2 (Abaxis Inc., Union City, Calif. 94587) hematology analyzer, measuring white blood cell count (WBC), red blood cell count (RBC), platelet (PLT) count, leukocyte differential (including % lymphocyte, % monocyte and % granulocyte), hematocrit (Ht), and hemoglobin (Hb).\n(Eppendorf Centrifuge 5415C) for 2 minutes to separate serum from cells and fibrin clot. The resulting serum specimens were analyzed using an automated blood chemistry analyzer (“COBAS MIRA Classic”; Roche, Indianapolis, Ind. 46250-0414) to measure alanine aminotransferase (ALT) and aspartate aminotransferase AST), blood urea nitrogen (BUN), and […].\nStomach and intestines were examined also imaged by ultrasound for evidence of dilation, an indication of GI toxicity. Briefly, mice were anesthetized using a mixture of isofluorane (5%) and oxygen gas (95%), restrained on a heated table using Aquagel Lubrication Gel (Parker Laboratories, Inc., Fairfield, N.J. 07004), and abdominal hair was removed with a chemical depilation agent (Nair™ Hair Removal, Church & Dwight Co., Inc., Princeton, N.J. 08543). Aquasonic 100 Ultrasound Transmission Gel (Parker Laboratories, Inc., Fairfield, N.J. 07004) was applied to the abdomen prior to imaging using a high-frequency probe to assess gas and intestinal distention.\nImmediately after ultrasound imaging, electrocardiogram (ECG) analysis of anesthetized mice was performed using a MP150 Biopack System."}, "BCL-XL": {"target": "BCL-XL (Homo sapiens (Human), UniProt Q07817)", "sequence (Q07817 whole entry)": "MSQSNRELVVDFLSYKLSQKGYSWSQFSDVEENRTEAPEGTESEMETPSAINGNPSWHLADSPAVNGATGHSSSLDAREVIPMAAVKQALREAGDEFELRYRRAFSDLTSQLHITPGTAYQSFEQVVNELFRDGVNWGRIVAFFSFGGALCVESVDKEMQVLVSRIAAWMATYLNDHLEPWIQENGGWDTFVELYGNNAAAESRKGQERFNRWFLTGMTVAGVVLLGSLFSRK", "assay": "1D 1H-NMR binding assay", "details": "4-point-rating scale; compounds 200 μM, BCL-XL 25 μM", "description": "By observing the aliphatic region of the spectra, binding could be readily detected due to chemical shift changes in active site methyl groups of Ile, Leu, Thr, Val or Ala (region between −0.8 and 0.3 ppm). All experiments were performed with a 600 MHz spectrometer Bruker Avance 600 equipped with four rf channels and z-axis pulse-field gradients."}, "380 cell line": {"system": "380 cell line", "assay": "Apoptosis induction in NHL B-cell lines, Annexin V-FITC/PI", "format": "cell-based", "details": "48 hours, relative to DOHH2 and RS11846", "description": "(§2) After 48 hours of incubation, % viability was determined by FACSort after staining cells by the use of an Annexin V-FITC/PI Apoptosis Detection kit (BioVision Inc.). Viable cells were defined by Annexin V-negative, PI-negative cells."}, "RS11846 cell line [4]": {"system": "RS11846 cell line", "assay": "Apoptosis induction in NHL B-cell lines, Annexin V-FITC/PI", "format": "cell-based", "details": "48 hours; read-out: IC50, % viability RS11846", "description": "as §2"}, "DOHH2 cell line": {"system": "DOHH2 cell line", "assay": "Apoptosis induction in NHL B-cell lines, Annexin V-FITC/PI", "format": "cell-based", "details": "48 hours; read-out: IC50, % viability DOHH2", "description": "as §2"}},
  "data": [
    {"molecule": "Cc1cc2c(C(C)C)c(O)c(O)c(C=O)c2c(O)c1-c1c(C)cc2c(C(C)C)c(O)c(O)c(C=O)c2c1O", "note": "[Gossypol, gossypol]", "values": [
      {"measurement": "EC50", "setting": "PC3ML cells", "result": 3.1, "unit": "µM"},
      {"measurement": "EC50", "setting": "RS11846 cell line [1]", "result": 2.2, "unit": "µM"},
      {"measurement": "EC50", "setting": "H460 cell line", "result": 3, "unit": "µM"},
      {"measurement": "EC50", "setting": "H1299 cell line", "result": 6, "unit": "µM"},
      {"measurement": "IC50", "setting": "[2]", "result": "~10", "unit": "µM"},
      {"measurement": "IC50", "setting": "GST-BCL-XL ΔTM protein", "result": 2.72, "unit": "µM"},
      {"measurement": "anti-tumor activity", "setting": "[3]", "result": "show anti-tumor activity"},
      {"measurement": "lethality", "setting": "[3]", "result": "non-lethal"},
      {"measurement": "general condition of mice", "setting": "Balb/c mice", "result": "lethagic with scruffy hair"},
      {"measurement": "1D 1H-NMR Binding Assay (BCL-XL)", "setting": "BCL-XL", "result": "++"},
      {"measurement": "sensitivity of 380 cell line", "setting": "380 cell line", "result": "slightly more resistant"},
      {"measurement": "IC50", "setting": "RS11846 cell line [4]", "result": "~3", "unit": "µM"},
      {"measurement": "IC50", "setting": "DOHH2 cell line", "result": "~3", "unit": "µM"}
    ]}
  ]
}
